The nature of series [1]: Radioactivity at determined time points after oral application of radiolabeled substances. It counts as in vivo. The conditions noted are these: radiolabeled substance.
The nature of series [2]: Bioavailability (absolute) of oral liposomal Vancomycin versus i.v. As to conditions: male, Wistar, rat, whole blood; oral liposomal formulation containing 1 mol-% of the cyclic CPP-liposomes, rats; read-out: bioavailability (absolute) in comparison with the i.v. application. In kind it is in vivo. On the procedure:
The animal study was performed according to local authorities using male Wistar rats with a body weight of about 200-250 g. For the determination of the bioavailability (absolute) the glycopeptide antibiotic Vancomycin was radiolabeled with ^131I and incorporated into the liposomal formulation containing 1 mol-% of the cyclic CPP-phospholipid-conjugate and compared with Vancomycin i.v. as described previously. At several time points, the blood levels of Vancomycin were measured by direct counting of the radiolabeled sample. Briefly, groups (n≥3) of male Wistar rats were formed. Prior to 12 h of the experiment, the rats were kept without food, but with free access to water. Oral application of the liposomes took place by gavage. The blood was removed, weighed and the radioactivity was measured using a Berthold LB 951 G counter in comparison with standards. The blood-associated activity was related to the total injected dose (ID) and expressed as a percentage of the total injected dose per gram of tissue (% ID/g).

Series [3] is described as follows: Oral availability of radiolabeled Adalimumab. In kind it is in vivo, male Wistar rats. The conditions noted are these: liposomes containing 1 mol-% cyclic CPP-conjugate vs radiolabeled free antibody, 6 h, rats. Here is the method:
The animal study was performed according to local authorities using male Wistar rats with a body weight of about 200-250 g. For the determination of the bioavailability (absolute), the antibody Adalimumab (Humira®) was radiolabeled with ^131I and incorporated into the liposomal formulation containing 1 mol-% of the cyclic CPP-phospholipid-conjugate and compared with the free antibody as described previously. After 6 h, the blood levels were measured by direct counting of the radiolabeled sample. Prior to 12 h of the experiment, the rats were kept without food, but with free access to water. Oral application of the liposomes and the radiolabeled free antibody took place by gavage. The blood was removed, weighed and the radioactivity was measured using a Berthold LB 951 G counter in comparison with standards. The blood-associated activity was related to the total injected dose (ID) and expressed as a percentage of the total injected dose per gram of tissue (% ID/g) (FIG. 16).

As to `CCCCCCCCCCCCCCCC(=O)N[C@@H](CCC(=O)NCCCC[C@H](NC(=O)[C@H](C)NC(=O)[C@H](C)NC(=O)[C@H](CCC(N)=O)NC(=O)CNC(=O)[C@H](CCC(=O)O)NC(=O)[C@H](CC(C)C)NC(=O)[C@H](Cc1ccc(O)cc1)NC(=O)[C@H](CO)NC(=O)[C@H](CO)NC(=O)[C@@H](NC(=O)[C@H](CC(=O)O)NC(=O)[C@H](CO)NC(=O)[C@@H](NC(=O)[C@H](Cc1ccccc1)NC(=O)[C@@H](NC(=O)CNC(=O)[C@H](CCC(=O)O)NC(=O)[C@H](C)NC(=O)[C@@H](N)Cc1cnc[nH]1)[C@@H](C)O)[C@@H](C)O)C(C)C)C(=O)N[C@@H](CCC(=O)O)C(=O)N[C@@H](Cc1ccccc1)C(=O)N[C@H](C(=O)N[C@@H](C)C(=O)N[C@@H](Cc1c[nH]c2ccccc12)C(=O)N[C@@H](CC(C)C)C(=O)N[C@H](C(=O)N[C@@H](CCCNC(=N)N)C(=O)NCC(=O)N[C@@H](CCCNC(=N)N)C(=O)NCC(=O)O)C(C)C)[C@@H](C)CC)C(=O)O` [Liraglutide], in series [1], the “mucosal uptake by the liposomal formulations” value is “strongly enhanced mucosal uptake”.

Take `CN[C@H](CC(C)C)C(=O)N[C@H]1C(=O)N[C@@H](CC(N)=O)C(=O)N[C@H]2C(=O)N[C@H]3C(=O)N[C@H](C(=O)N[C@H](C(=O)O)c4cc(O)cc(O)c4-c4cc3ccc4O)[C@H](O)c3ccc(c(Cl)c3)Oc3cc2cc(c3O[C@@H]2O[C@H](CO)[C@@H](O)[C@H](O)[C@H]2O[C@H]2C[C@](C)(N)[C@H](O)[C@H](C)O2)Oc2ccc(cc2Cl)[C@H]1O` [Vancomycin]: the bioavailability in series [2] is at most 50%. For the compound Adalimumab, the oral availability entry in series [3] is “strong increase”. In addition, the “mucosal uptake by the liposomal formulations” value in series [1] is on record as “strongly enhanced mucosal uptake”.

For the origin of these results see patent US10653796B2, “Liposomes containing cell penetrating peptides and tetraetherlipids for the oral delivery of macromolecules” (Universität Heidelberg, priority 2015, dated 2020).
